ChEMBL document CHEMBL1201862, “PubChem BioAssay data set” (2004)
Activity calls are given as the source filed them.

Legend:
[1] = HEK293T cytotoxicity, dose response, cytotoxicity control for miR-122 modulator project, cell-based, activator set, cherry-pick (AID 720690); assay type: functional;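 also: HEK293T human cells scored for general mammalian cytotoxicity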
[2] = Dose-response inhibition of insulin secretion in a rat insulinoma line at 5 mM glucose (AID 1117331); assay type: functional, cell-based; settings: INS-1E
[3] = ADAM10 inhibitors, peptide cleavage, dose response, biochemical, QFRET (AID 743254);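 also: ADAM10 enzyme with the DM2 quenched FRET peptide as substrate; EDANS fluorescence gain as the protease cuts the substrate; inhibitor potency against ADAM10 proteolytic activity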
[4] = molecular target: Disintegrin and metalloproteinase domain-containing protein 17 (Homo sapiens, UniProt P78536); experiment: ADAM17 protease inhibitors, dose response, counter-screen for ADAM10 exosite inhibitor project, biochemical, quenched FRET substrate (AID 743253)
[5] = A549 cell cytotoxicity, dose response, cytotoxicity control, cherry-picks, 26 µM top dose (AID 1053119); assay type: functional, cell-based
[6] = MITF Orthogonal Assay: SK-MEL-5 CTG Assay Measured in Cell-Based System Using Plate Reader - 2084-02_Inhibitor_Dose_DryPowder_Activity_Set7.; assay type: functional
[7] = MITF: Counter assay: A375 proliferation Measured in Cell-Based System Using Plate Reader - 2084-03_Inhibitor_Dose_DryPowder_Activity_Set8.; assay type: functional; settings: A-375
[8] = TRPM1 promoter luciferase reporter signal decrease, dose response, MITF inhibitor project, cell-based, SK-MEL-5, dry powder, set 8 (AID 624430); assay type: functional
[9] = molecular target: Nonstructural protein 1 (Influenza A virus, UniProt Q194T2); assay type: functional, Influenza A virus (A/California/07/2009(H1N1))
[10] = molecular target: Histone-lysine N-methyltransferase NSD2 (Homo sapiens, UniProt O96028); assay type: biochemical
[11] = molecular target: SWI/SNF-related matrix-associated actin-dependent regulator of chromatin subfamily A member 2 (Homo sapiens, UniProt P51531); experiment: Luminescence-based cell-based high throughput dose response assay to identify activators of the function of SWI/SNF related, matrix associated, actin dependent regulator of chromatin, subfamily a, member 2 (SMARCA2, BRM).; assay type: functional
[12] = Counterscreen for activators of the function of SWI/SNF related, matrix associated, actin dependent regulator of chromatin, subfamily a, member 2 (SMARCA2, BRM): Luminescence-based cell-based high throughput dose response assay to identify non-selective compounds using the VP16 reporter assay.; assay type: functional
[13] = off-target signal loss in HeLa-CEM21 co-culture – HeLa F-luc CTL cells, cherry-picked, counter-screen for HIV-1 Env fusion inhibitor project, dose response (AID 652040); assay type: functional, cell-based;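 also: potency for signal decrease marking cytotoxic or nonspecific inhibition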
[14] = inhibitors of clade B AD8 Env fusion, dose response, cell-based, cherry-pick (AID 652062); assay type: functional;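 also: luciferase signal from cell-cell fusion driven by HIV-1 clade B AD8 Env; potency is for inhibitors of fusion seen as a drop in luminescence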
[15] = molecular target: Cytochrome P450 2C9 (Homo sapiens, UniProt P11712)
[16] = molecular target: Protein Wnt-3a (Mus musculus, UniProt P27467); experiment: SAR analysis of small molecule antagonists of Gli-SUFU in a Wnt3a luminescent reporter assay.; assay type: functional
[17] = tested on: Vero; experiment: cells; assay type: functional; settings: Chlorocebus sabaeus
[18] = molecular target: T1, Mitochondrial peptide methionine sulfoxide reductase (Bos taurus, UniProt P54149); experiment: Absorbance-based biochemical high throughput dose response assay for activators of Methionine sulfoxide reductase A (MsrA).; assay type: functional
T1 sequence (P54149 whole entry): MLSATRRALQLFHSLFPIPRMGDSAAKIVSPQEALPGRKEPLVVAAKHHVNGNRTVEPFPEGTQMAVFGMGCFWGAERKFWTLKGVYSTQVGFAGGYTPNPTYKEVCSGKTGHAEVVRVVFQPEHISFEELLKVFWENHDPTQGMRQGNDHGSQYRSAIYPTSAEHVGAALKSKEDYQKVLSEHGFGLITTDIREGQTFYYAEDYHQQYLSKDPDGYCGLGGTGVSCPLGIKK

SWI/SNF-related matrix-associated actin-dependent regulator of chromatin subfamily A member 2, sequence (P51531 whole entry): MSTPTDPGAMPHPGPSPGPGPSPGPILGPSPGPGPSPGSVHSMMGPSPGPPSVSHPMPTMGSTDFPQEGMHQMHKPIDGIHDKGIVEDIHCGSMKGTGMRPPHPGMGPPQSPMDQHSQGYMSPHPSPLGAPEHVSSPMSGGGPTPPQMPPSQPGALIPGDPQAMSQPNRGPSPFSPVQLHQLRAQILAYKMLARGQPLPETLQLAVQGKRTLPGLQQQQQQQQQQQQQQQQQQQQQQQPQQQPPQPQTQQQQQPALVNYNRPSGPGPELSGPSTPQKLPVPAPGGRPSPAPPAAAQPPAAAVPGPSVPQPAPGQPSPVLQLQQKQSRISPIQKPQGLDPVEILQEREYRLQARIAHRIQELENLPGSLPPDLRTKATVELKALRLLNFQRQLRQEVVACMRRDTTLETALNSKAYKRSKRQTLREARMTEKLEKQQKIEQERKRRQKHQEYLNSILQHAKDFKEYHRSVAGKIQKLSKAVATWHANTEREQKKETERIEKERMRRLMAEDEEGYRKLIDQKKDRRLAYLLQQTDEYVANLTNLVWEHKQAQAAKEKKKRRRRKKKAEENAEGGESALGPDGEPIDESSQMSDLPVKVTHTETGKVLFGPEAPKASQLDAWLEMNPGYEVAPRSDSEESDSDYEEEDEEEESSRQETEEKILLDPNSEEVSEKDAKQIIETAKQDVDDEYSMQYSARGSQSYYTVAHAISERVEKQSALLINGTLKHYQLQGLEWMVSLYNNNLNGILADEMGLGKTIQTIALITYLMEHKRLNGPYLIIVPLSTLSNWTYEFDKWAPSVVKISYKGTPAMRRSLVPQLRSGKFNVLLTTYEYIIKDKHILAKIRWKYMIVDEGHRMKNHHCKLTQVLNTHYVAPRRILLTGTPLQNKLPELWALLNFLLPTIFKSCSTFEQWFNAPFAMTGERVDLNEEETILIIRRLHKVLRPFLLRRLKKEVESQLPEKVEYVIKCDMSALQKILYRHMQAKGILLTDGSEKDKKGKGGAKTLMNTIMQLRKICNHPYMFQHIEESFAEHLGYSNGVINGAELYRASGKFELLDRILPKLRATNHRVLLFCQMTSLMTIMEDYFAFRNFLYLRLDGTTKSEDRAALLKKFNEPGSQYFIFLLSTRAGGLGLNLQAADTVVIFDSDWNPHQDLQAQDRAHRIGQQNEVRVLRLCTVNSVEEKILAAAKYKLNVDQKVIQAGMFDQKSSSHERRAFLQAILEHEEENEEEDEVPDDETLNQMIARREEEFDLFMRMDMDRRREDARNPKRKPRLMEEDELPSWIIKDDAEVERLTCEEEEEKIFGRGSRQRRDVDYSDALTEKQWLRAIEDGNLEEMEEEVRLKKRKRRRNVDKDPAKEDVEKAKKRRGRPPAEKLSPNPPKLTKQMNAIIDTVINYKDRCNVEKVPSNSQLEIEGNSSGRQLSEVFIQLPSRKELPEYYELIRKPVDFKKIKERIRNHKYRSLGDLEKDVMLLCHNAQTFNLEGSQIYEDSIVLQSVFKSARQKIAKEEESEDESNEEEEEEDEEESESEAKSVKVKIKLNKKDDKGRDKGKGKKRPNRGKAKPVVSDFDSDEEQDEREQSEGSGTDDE
Protein Wnt-3a, sequence (P27467 whole entry): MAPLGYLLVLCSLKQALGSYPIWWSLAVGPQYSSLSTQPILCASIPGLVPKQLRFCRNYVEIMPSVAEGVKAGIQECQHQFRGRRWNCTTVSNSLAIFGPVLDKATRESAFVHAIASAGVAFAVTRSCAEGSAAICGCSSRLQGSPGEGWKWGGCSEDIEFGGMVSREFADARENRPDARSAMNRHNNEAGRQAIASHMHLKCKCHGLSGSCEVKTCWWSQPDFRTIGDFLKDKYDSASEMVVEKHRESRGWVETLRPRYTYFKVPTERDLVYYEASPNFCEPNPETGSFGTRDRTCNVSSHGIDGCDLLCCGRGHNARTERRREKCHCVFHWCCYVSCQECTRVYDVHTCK
Disintegrin and metalloproteinase domain-containing protein 17, sequence (P78536 whole entry, the tested form may be a part): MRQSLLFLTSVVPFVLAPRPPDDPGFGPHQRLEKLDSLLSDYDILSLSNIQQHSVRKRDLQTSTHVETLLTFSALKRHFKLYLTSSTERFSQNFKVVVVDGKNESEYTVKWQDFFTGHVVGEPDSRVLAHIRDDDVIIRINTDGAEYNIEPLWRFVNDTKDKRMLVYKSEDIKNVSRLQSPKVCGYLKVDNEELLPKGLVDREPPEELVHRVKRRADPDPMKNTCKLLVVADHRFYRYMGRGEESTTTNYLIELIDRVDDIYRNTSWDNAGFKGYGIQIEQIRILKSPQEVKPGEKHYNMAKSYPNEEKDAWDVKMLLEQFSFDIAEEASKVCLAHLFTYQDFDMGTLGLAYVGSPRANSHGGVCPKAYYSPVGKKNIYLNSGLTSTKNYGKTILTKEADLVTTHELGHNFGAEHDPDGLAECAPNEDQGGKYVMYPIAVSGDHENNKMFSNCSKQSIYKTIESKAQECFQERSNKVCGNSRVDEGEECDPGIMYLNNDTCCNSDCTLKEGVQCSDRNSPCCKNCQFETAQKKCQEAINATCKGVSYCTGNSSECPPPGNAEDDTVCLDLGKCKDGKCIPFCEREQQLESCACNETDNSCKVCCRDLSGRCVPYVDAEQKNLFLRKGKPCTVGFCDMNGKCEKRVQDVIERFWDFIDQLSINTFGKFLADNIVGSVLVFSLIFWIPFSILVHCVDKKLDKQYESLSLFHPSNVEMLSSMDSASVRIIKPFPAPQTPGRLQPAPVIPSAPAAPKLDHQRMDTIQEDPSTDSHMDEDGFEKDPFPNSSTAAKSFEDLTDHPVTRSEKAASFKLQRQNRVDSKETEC
Histone-lysine N-methyltransferase NSD2, sequence (O96028 whole entry): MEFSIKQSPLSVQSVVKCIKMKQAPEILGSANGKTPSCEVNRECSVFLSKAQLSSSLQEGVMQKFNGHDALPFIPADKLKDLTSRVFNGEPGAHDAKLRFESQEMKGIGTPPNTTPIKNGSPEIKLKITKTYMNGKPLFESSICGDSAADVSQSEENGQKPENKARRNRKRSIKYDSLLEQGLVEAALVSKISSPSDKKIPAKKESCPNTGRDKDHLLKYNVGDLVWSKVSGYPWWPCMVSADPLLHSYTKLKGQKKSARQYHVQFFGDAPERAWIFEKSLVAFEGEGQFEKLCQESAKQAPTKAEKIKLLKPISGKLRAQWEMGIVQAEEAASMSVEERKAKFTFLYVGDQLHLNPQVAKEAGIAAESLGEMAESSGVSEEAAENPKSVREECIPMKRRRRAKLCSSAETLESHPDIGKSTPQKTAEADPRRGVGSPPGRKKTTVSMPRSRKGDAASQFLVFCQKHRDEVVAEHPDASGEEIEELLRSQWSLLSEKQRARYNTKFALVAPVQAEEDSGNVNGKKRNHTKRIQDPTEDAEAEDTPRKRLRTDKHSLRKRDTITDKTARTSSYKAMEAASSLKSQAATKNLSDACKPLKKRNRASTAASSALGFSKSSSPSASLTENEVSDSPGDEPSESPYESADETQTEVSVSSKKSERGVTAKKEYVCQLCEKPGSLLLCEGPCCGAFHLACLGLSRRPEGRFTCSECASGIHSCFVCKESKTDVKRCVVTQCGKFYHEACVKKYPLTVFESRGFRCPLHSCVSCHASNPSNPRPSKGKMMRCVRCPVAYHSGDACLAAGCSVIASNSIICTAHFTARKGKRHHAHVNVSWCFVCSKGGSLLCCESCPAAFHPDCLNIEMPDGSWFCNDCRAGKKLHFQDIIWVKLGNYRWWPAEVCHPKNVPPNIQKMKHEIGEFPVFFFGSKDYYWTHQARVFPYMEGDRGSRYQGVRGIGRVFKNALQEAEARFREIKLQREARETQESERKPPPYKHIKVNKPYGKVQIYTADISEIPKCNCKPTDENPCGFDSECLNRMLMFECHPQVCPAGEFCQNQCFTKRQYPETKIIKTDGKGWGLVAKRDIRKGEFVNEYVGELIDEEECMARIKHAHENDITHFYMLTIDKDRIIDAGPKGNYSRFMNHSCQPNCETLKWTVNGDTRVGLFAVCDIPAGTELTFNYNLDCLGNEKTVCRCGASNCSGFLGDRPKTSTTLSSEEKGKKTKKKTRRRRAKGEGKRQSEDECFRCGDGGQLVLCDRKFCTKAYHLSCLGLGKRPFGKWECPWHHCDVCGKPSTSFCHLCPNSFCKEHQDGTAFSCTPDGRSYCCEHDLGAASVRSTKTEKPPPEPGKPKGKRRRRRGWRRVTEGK
Nonstructural protein 1, sequence (Q194T2 whole entry): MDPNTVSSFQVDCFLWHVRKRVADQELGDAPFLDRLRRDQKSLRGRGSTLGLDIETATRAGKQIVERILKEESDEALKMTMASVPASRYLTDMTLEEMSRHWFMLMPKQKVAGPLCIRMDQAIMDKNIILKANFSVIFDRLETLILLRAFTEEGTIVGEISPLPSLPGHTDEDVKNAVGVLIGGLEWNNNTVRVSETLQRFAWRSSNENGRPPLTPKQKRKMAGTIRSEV
Cytochrome P450 2C9, sequence (P11712 whole entry): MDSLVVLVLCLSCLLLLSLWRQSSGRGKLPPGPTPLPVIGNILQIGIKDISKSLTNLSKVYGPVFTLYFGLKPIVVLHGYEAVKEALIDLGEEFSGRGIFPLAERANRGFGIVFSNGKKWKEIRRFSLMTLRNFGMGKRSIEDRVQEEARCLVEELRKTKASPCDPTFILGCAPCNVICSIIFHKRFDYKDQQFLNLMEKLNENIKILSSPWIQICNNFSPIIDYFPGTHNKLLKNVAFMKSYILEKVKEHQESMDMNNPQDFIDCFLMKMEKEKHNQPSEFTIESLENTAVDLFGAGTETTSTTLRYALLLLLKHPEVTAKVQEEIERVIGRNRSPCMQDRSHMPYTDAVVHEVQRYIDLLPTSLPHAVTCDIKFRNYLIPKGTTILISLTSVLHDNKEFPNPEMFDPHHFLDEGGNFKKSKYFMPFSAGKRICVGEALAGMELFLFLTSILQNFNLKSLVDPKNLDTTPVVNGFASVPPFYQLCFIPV

For `COc1ccc(CN(C)C[C@@H]2OCCCC[C@H](C)Oc3ccc(NC(=O)Nc4ccc(C(F)(F)F)cc4)cc3C(=O)N([C@H](C)CO)C[C@H]2C)cc1`, the AC50 [1] was 16.6 µM (active).

In the case of `CN(C)CC/C=C1\c2ccccc2Sc2ccc(Cl)cc21`, the IC50 [2] is reported as > 33.3 µM (inactive).

With `COc1cc(NC(=O)c2ccccc2)c(C)cc1NC(=O)CSc1nnc(-c2ccccc2F)n1-c1ccc(C)cc1` the IC50 [3] was > 69.5 µM (inactive) and the IC50 [4] was > 69.5 µM (inactive).

With `CN(C)C(=O)c1ccc(-c2ccc3c(c2)[C@H]2[C@H](CCN2C(=O)c2ccc(F)cc2)[C@@H](CO)N3C)cc1` the AC50 [5] was > 47 µM (inactive).

With `CN1CCN(C2=C(Nc3ccc(F)cc3)C(=O)c3ccccc3C2=O)CC1` the AC50 [6] was 12.1 µM (active), the AC50 [7] was > 70 µM (inactive) and the AC50 [8] was 8.28 µM (active).

For `COC1=C(Nc2ccc(OC)cc2)C(=O)c2ccccc2C1=O`, the IC50 [9] was 9.3 µM (active) and the AC50 [10] was 8.98 µM (active).

In the case of `C=C1C(=O)[C@]23C[C@H]1CC[C@H]2[C@]1(C)[C@@H](O)CC[C@@](C)(C(=O)O)[C@H]1C[C@@H]3O` [GEOPYXIN A], the EC50 [11] is reported as > 91.1 µM (inactive) and the EC50 [12] is reported as > 91.1 µM (inactive).

For `O=C(Nc1ccc(S(=O)(=O)N2CCCC2)cc1)c1ccc(CN2CCOCC2)cc1`, the AC50 [13] was > 70 µM (inactive), the AC50 [14] was 6.7 µM (active) and the AC50 [15] was 10 µM (inconclusive).

In the case of `Cc1ccc(C(=O)Nc2cc(N3CCCCC3)ncn2)cc1`, the IC50 [16] is reported as > 21.8 µM (inactive).

In the case of `O=C(Nc1cccc([N+](=O)[O-])c1)c1ccc([N+](=O)[O-])o1`, the CC50 [17] is reported as 12 µM (active), the EC50 [18] is reported as > 104 µM (inactive) and the EC50 [11] is reported as > 91.2 µM (inactive). The EC50 [12] was > 91.2 µM (inactive).
